Consider eleven compounds from patent US12589156B2, “Benzimidazole and benzimidazolone based protac compounds for the targeted degradation of leucine rich repeat kinase 2 (LRRK2)” (Arvinas Operations, Inc., priority 2023, dated 2026).

The target of the assay is T1, WT LRRK2 (Homo sapiens, UniProt Q5S007).
T1 construct: endogenous in cells; host or cells: HEK293 (endogenous LRRK2 gene knock-in tagged with HiBit; stably expressing CMV-driven firefly luciferase)
As to the kind of experiment: LRRK2 HiBit degradation assay (Nano-Glo Dual Luciferase) in HEK293 cells with HiBit-tagged endogenous LRRK2. It is filed as cell-based. Conditions: HiBit-tagged LRRK2 in HEK293 cells, 24 hours treatment; for Dmax: maximal degradation; for DC50: starting concentration 1 μM. From the text: Biological Assays Exemplary Assay for Testing LRRK2 Degradation Driven by Exemplary Hetero-Bifunctional Compounds Designed to Target LRRK2
The assay measures the degradation of LRRK2 in cells where the C-terminus (3′) of the endogenous gene has been tagged with a HiBit sequence in HEK293 cells. The cells also express firefly lucisferase, expressed from a Cytomegalovirus promoter and introduced into the HiBit tagged cells and stably expressed. The Nano-Glo® Dual Luciferase Reporter Assay System (Promega™, Madison, WI) was utilized.
Day 1—Preparation of Compound and Assay Plates. Two sets of plates were prepared: a triplicate set for the HiBit assay in white 384-well plates and a triplicate set of plate in black 384-well plates for the Alamar Blue cell viability assay. Briefly, the growth media (DMEM+Glutamax-10% fetal bovine serum-1% Penicillin-Streptomicin) from two T128 flasks was aspirated from the flasks. Cells were washed with Dulbecco's Phosphate Buffered Saline (dPBS) and aspirated. Trypsin (3 mL per flask) was added and the flasks were incubated for 2-3 minutes.
Ten mL of OptiMEM—10% fetal bovine-1% penicillin-streptomycin (hereinafter, “OptiMEM media”) was added to the flask and the cells and transferred to a 50 ml conical tube. A cell count (25 ul of cell into Effendorf vial+25 ul of Trypan Blue Stain) was performed and the cell density adjusted to 15,000 cell/45 μl/well (3.33×10^5/mL) in OptiMEM media.
Forty-five microliters of the cell suspension (15,000 cells) was aliquoted to each well of the white 384-well plate. The plates incubated at room temperature for 10 minutes before being placed in the 37° C.+5% CO2 incubator overnight
Day 2—Compound Treatment. Exemplary compounds were prepared at a 1 mM starting concentration and 1:3 serial dilution for 11 points CRC prepared and stored in the freezer. The Master Compound Plate was thawed overnight at room temperature. DMSO (20 μL) was added into column 24 of the Master Compound Plate for negative control and 20 μL of 300 μM of Compound 4 in column 23 as positive control.
Intermediate Compound Plate with 4% DMSO in OptiMEM Media. DMSO was added to warm OptiMEM media to achieve a 4% DMSO solution (approximately 50 mL/plate). One-hundred microliters of the OptiMEM-4% DMSO was aliquoted to each well of 384-Well Deep Well Microplates.
The Master Compound Plate and the Intermediate Compound Plate were spun down.
One microliter of compound from the Master Compound Plate was transferred into the Intermediate plate (a 1:100 dilution). The diluted mixture was mixed and 5 μL transferred into the assay plate (a 1:10 dilution) for the final starting concentration of 1 μM. The Treated Assay plates were incubated for 24 hours at 37° C.+5% CO2. The Master Compound Plate was sealed and store at room temperature for a second run that was performed within a week.
One set of white assay plates was warmed to room temperature (45 minute).
The One Glo luciferase mixture was prepared. The media from white 384-well assay plates was aspirated. Twenty-five μL of the One Glo luciferase mixture was added to each well of the assay plates. The plates were incubated on the bench (room temperature) for 45 minutes, including 10 minutes of shaking at 700 rpm. The luminescence of each plate was read on a plate reader.
1:100 DLR substrate and 1:100 LgBiT Protein dilution were added to the Promega Stop and Glo buffer and mixed just before addition to assay plates. Twenty-five microliters of Stop and Glo mixture was added to each well. Assay plates incubated for at least 45 minutes, including 10 minutes of shaking at 700 rpm. The luminescence of each plate was read on a plate reader.
Analysis of LRRK2 HiBit Screening assays. As mentioned above, plates were run in triplicate and the assay repeated twice (total of 6 replicate for exemplary compounds). For each treatment, measurements were taken for firefly luciferase for cell number, cell viability (Alamar Blue), and Nanoluc for the LRRK2-HiBit quantification. […]
A general note: The HiBiT peptide binds its large partner to form an active luciferase.

Molecules are shown by their SMILES.

T1 sequence (Q5S007 whole entry): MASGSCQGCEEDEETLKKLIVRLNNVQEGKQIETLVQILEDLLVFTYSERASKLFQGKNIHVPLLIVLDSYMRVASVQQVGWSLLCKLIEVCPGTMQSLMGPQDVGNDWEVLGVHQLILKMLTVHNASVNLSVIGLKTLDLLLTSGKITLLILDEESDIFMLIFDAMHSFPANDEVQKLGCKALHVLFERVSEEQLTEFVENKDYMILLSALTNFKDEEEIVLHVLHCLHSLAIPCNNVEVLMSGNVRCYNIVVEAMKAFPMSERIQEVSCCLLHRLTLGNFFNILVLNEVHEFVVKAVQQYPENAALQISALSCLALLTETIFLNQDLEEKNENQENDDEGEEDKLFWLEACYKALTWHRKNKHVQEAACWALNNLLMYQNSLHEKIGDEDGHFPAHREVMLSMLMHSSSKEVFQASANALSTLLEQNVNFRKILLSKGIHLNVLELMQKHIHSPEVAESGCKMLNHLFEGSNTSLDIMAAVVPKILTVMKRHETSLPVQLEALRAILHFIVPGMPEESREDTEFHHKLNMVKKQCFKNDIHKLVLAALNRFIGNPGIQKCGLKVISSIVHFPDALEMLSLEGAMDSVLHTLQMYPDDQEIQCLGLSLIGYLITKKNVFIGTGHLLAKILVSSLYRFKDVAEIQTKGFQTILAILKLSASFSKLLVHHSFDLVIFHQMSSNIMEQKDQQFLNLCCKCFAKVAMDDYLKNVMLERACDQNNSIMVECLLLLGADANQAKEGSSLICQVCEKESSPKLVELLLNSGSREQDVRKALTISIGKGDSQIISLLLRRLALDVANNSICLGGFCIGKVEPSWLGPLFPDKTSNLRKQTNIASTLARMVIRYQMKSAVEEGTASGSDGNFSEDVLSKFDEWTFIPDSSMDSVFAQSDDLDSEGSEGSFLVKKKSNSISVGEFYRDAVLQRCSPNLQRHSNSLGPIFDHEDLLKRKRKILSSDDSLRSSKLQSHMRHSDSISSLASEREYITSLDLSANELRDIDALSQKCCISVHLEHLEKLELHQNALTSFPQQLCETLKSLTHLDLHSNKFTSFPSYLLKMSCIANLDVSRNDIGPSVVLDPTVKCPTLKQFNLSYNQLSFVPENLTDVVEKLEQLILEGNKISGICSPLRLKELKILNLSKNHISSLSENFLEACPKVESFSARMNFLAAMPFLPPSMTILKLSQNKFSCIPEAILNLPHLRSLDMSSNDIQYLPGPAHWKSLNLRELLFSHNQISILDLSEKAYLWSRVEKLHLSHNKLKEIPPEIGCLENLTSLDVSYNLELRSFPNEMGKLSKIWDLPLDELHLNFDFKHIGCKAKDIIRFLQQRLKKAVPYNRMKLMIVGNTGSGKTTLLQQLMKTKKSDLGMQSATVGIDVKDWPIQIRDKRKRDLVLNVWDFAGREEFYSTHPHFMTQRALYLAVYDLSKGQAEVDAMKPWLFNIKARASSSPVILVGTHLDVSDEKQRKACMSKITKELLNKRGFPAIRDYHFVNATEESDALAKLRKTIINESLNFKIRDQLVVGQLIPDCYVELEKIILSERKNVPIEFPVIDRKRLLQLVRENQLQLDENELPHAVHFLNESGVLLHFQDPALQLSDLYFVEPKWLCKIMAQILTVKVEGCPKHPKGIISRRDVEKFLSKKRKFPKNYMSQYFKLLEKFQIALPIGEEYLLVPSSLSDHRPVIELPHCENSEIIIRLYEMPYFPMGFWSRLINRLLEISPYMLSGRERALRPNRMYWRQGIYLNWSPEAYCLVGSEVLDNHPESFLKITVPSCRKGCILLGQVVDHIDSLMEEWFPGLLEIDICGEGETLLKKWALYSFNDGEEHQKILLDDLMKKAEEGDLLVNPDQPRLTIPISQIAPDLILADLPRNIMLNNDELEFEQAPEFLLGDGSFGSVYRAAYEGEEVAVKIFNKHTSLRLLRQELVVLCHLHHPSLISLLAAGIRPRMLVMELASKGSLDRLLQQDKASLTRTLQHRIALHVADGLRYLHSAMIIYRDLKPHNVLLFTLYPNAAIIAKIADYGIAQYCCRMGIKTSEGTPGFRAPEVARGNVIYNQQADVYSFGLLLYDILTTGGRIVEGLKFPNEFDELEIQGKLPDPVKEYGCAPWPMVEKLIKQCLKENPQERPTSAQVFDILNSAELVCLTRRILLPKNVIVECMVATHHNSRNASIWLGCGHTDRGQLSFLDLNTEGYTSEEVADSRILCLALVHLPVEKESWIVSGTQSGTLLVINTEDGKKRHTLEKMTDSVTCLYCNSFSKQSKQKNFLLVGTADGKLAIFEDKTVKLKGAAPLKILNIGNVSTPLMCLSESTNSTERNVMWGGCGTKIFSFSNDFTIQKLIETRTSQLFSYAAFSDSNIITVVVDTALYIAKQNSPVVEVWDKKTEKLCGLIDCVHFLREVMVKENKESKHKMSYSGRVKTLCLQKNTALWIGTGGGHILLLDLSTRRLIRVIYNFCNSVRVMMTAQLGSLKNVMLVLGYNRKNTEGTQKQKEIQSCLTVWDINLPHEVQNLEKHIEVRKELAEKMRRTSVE

The Dmax is the greatest extent of degradation seen. A higher Dmax goes with deep degradation. The DC50 is the concentration giving 50% degradation. `CC(C)Oc1ccc2[nH]nc(-c3cc(N4CCC(O[C@H]5CC[C@H](OC6CCN(c7ccc8c(c7)n(C)c(=O)n8C7CCC(=O)NC7=O)CC6)CC5)CC4)ncn3)c2c1` (single isomer, unassigned) [Compound 27, rel-3-[3-methyl-2-oxo-5-(4-{[(1r,4r)-4-[(1-{6-[5-(propan-2-yloxy)-1H-indazol-3-yl]pyrimidin-4-yl}piperidin-4-yl)oxy]cyclohexyl]oxy}piperidin-1-yl)-2,3-dihydro-1H-1,3-benzodiazol-1-yl]piperidine-2,6-dione] had a Dmax (HEK293, Table 2) of 57%. Besides, under “Table 2”, the 50% degradation concentration (DC50) was 0.25 nM.

`Cn1c(=O)n(C2CCC(=O)NC2=O)c2ccc(N3CCC(O[C@H]4C[C@H](OC5CCN(c6cc(-c7n[nH]c8ccc(OC9(C)CC9)cc78)ncn6)CC5)C4)CC3)cc21` (single isomer, unassigned) [Compound 29, rel-3-(3-methyl-2-oxo-5-{4-[(1r,3r)-3-[(1-{6-[5-(1-methylcyclopropoxy)-1H-indazol-3-yl]pyrimidin-4-yl}piperidin-4-yl)oxy]cyclobutoxy]piperidin-1-yl}-2,3-dihydro-1H-1,3-benzodiazol-1-yl)piperidine-2,6-dione]: under “Table 2”, half-maximal degradation (DC50) was put at 0.16 nM and the Dmax is 54%.

Regarding `Cn1c(=O)n(C2CCC(=O)NC2=O)c2ccc(N3CCC(O[C@H]4C[C@H](OC5CCN(c6cc(-c7n[nH]c8cnc(OC9(C)CC9)cc78)ncn6)CC5)C4)CC3)cc21` (single isomer, unassigned) [Compound 30, rel-3-(3-methyl-2-oxo-5-{4-[(1r,3r)-3-[(1-{6-[5-(1-methylcyclopropoxy)-1H-pyrazolo[3,4-c]pyridin-3-yl]pyrimidin-4-yl}piperidin-4-yl)oxy]cyclobutoxy]piperidin-1-yl}-2,3-dihydro-1H-1,3-benzodiazol-1-yl)piperidine-2,6-dione], for the setting “Table 2”, it took 0.065 nM to reach half-maximal degradation (DC50) and the Dmax was found to be 48%.

As for `CC(C)Oc1cc2c(-c3cc(N4CCC(O[C@H]5C[C@H](OC6CCN(c7ccc8c(c7)n(C)c(=O)n8C7CCC(=O)NC7=O)CC6)C5)CC4)ncn3)n[nH]c2cn1` (single isomer, unassigned) [Compound 31, rel-3-(3-methyl-2-oxo-5-{4-[(1r,3r)-3-[(1-{6-[5-(propan-2-yloxy)-1H-pyrazolo[3,4-c]pyridin-3-yl]pyrimidin-4-yl}piperidin-4-yl)oxy]cyclobutoxy]piperidin-1-yl}-2,3-dihydro-1H-1,3-benzodiazol-1-yl)piperidine-2,6-dione], for the setting “Table 2”, half-maximal degradation (DC50) was put at 160 nM and the greatest degradation seen (Dmax) was determined as 61%.

Take `Cn1c(=O)n(C2CCC(=O)NC2=O)c2ccc(N3CCC(OC[C@H]4C[C@H](OC5CCN(c6cc(-c7n[nH]c8cnc(OC9(C)CC9)cc78)ncn6)CC5)C4)CC3)cc21` (single isomer, unassigned) [Compound 32, rel-3-[3-methyl-2-oxo-5-(4-{[(1r,3r)-3-[(1-{6-[5-(1-methylcyclopropoxy)-1H-pyrazolo[3,4-c]pyridin-3-yl]pyrimidin-4-yl}piperidin-4-yl)oxy]cyclobutyl]methoxy}piperidin-1-yl)-2,3-dihydro-1H-1,3-benzodiazol-1-yl]piperidine-2,6-dione]: under “Table 2”, the half-maximal degradation concentration (DC50) was 0.33 nM and the maximal degradation (Dmax) turned out to be 51%.

For the compound `Cn1c(=O)n(C2CCC(=O)NC2=O)c2ccc(N3CCC(OC[C@H]4C[C@H](OC5CCN(c6cc(-c7n[nH]c8ccc(OC9(C)CC9)cc78)ncn6)CC5)C4)CC3)cc21` (single isomer, unassigned) [Compound 33, rel-3-[3-methyl-2-oxo-5-(4-{[(1r,3r)-3-[(1-{6-[5-(1-methylcyclopropoxy)-1H-indazol-3-yl]pyrimidin-4-yl}piperidin-4-yl)oxy]cyclobutyl]methoxy}piperidin-1-yl)-2,3-dihydro-1H-1,3-benzodiazol-1-yl]piperidine-2,6-dione], where the note is “Table 2”, it took 0.14 nM to reach half-maximal degradation (DC50) and the Dmax came out at 62%.

For the setting “HEK293, Table 2”, `Cn1c(=O)n(C2CCC(=O)NC2=O)c2ccc(N3CCC(O[C@H]4C[C@H](COC5CCN(c6cc(-c7n[nH]c8cnc(OC9(C)CC9)cc78)ncn6)CC5)C4)CC3)cc21` (single isomer, unassigned) [Compound 34, rel-3-(3-methyl-2-oxo-5-{4-[(1r,3r)-3-{[(1-{6-[5-(1-methylcyclopropoxy)-1H-pyrazolo[3,4-c]pyridin-3-yl]pyrimidin-4-yl}piperidin-4-yl)oxy]methyl}cyclobutoxy]piperidin-1-yl}-2,3-dihydro-1H-1,3-benzodiazol-1-yl)piperidine-2,6-dione] gave a maximal degradation (Dmax) of 57%. Besides, half-maximal degradation (Table 2) (DC50) was put at 0.42 nM.

On to `Cn1c(=O)n(C2CCC(=O)NC2=O)c2ccc(N3CCC(O[C@H]4C[C@H](CN5CCN(c6cc(-c7n[nH]c8cnc(OC9(C)CC9)cc78)ncn6)CC5)C4)CC3)cc21` (single isomer, unassigned) [Compound 35, rel-3-(3-methyl-2-oxo-5-{4-[(1r,3r)-3-[(4-{6-[5-(1-methylcyclopropoxy)-1H-pyrazolo[3,4-c]pyridin-3-yl]pyrimidin-4-yl}piperazin-1-yl)methyl]cyclobutoxy]piperidin-1-yl}-2,3-dihydro-1H-1,3-benzodiazol-1-yl)piperidine-2,6-dione], for which the Dmax (HEK293, Table 2) was 50%. In addition, the 50% degradation concentration (DC50) (Table 2) was determined as 0.052 nM.

On to `Cn1c(=O)n(C2CCC(=O)NC2=O)c2ccc(N3CCN(C[C@H]4C[C@H](OC5CCN(c6cc(-c7n[nH]c8cnc(OC9(C)CC9)cc78)ncn6)CC5)C4)CC3)cc21` (single isomer, unassigned) [Compound 36, rel-3-[3-methyl-2-oxo-5-(4-{[(1r,3r)-3-[(1-{6-[5-(1-methylcyclopropoxy)-1H-pyrazolo[3,4-c]pyridin-3-yl]pyrimidin-4-yl}piperidin-4-yl)oxy]cyclobutyl]methyl}piperazin-1-yl)-2,3-dihydro-1H-1,3-benzodiazol-1-yl]piperidine-2,6-dione], for which, under “Table 2”, the DC50 is 0.079 nM and the greatest degradation seen (Dmax) is 60%.

Under “Table 2”, `Cn1c(=O)n(C2CCC(=O)NC2=O)c2ccc(C3CCN([C@H]4C[C@H](OC5CCN(c6cc(-c7n[nH]c8ccc(OC9(C)CC9)cc78)ncn6)CC5)C4)CC3)cc21` (single isomer, unassigned) [Compound 37, rel-3-(3-methyl-2-oxo-5-{1-[(1r,3r)-3-[(1-{6-[5-(1-methylcyclopropoxy)-1H-indazol-3-yl]pyrimidin-4-yl}piperidin-4-yl)oxy]cyclobutyl]piperidin-4-yl}-2,3-dihydro-1H-1,3-benzodiazol-1-yl)piperidine-2,6-dione] gave a half-maximal degradation concentration (DC50) of 0.053 nM and a Dmax of 64%.

As for `Cn1c(=O)n(C2CCC(=O)NC2=O)c2cccc(N3CCC(O[C@H]4CC[C@H](CN5CCN(c6cc(-c7n[nH]c8cnc(OC9(C)CC9)cc78)ncn6)CC5)CC4)CC3)c21` (single isomer, unassigned) [Compound 46, rel-3-[3-methyl-2-oxo-4-(4-{[(1r,4r)-4-[(4-{6-[5-(1-methylcyclopropoxy)-1H-pyrazolo[3,4-c]pyridin-3-yl]pyrimidin-4-yl}piperazin-1-yl)methyl]cyclohexyl]oxy}piperidin-1-yl)-2,3-dihydro-1H-1,3-benzodiazol-1-yl]piperidine-2,6-dione], for the setting “HEK293, Table 2”, the greatest degradation seen (Dmax) is 90%. Also, the DC50 (Table 2) is 2.1 nM.
